Experimental data reported in ChEMBL document CHEMBL3046617, “Effects of fungicides on in vitro spore germination and mycelial growth of the phytopathogens Leptosphaeria maculans and L. biglobosa (phoma stem canker of oilseed rape)” (2010).
In brackets after ≈: the same amount, converted by molar mass. Activity calls are given as the source filed them. No cut-off for these calls is given here.

Tests used:
Plenodomus biglobosus [1] = assay: Antifungal activity against Leptosphaeria biglobosa assessed as ascospore germination at 0.25 to 1 ug/ml after 22 hr; assay type: functional
Plenodomus lingam [2] = assay: Antifungal activity against Leptosphaeria maculans assessed as ascospore germination at 0.25 to 1 ug/ml after 22 hr; assay type: functional
Plenodomus lingam [3] = assay: Antifungal activity against Leptosphaeria maculans assessed as reduction of germ tube length at 0.25 ug/ml after 22 hr relative to control; assay type: functional; set-up: scale not given: the % may be the effect or the level left
Plenodomus biglobosus [4] = assay: Antifungal activity against Leptosphaeria biglobosa assessed as reduction of germ tube length at 0.25 ug/ml after 22 hr relative to control; assay type: functional; set-up: scale not given: the % may be the effect or the level left
Plenodomus biglobosus [5] = assay: Antifungal activity against Leptosphaeria biglobosa assessed as inhibition of conidia germination at 0.25 to 1 ug/ml after 22 hr; assay type: functional, organism-based
Plenodomus biglobosus [6] = assay: Antifungal activity against Leptosphaeria biglobosa assessed as viable conidia at 0.25 to 1 ug/ml after 1 week; assay type: functional, organism-based
Plenodomus lingam [7] = assay: Antifungal activity against Leptosphaeria maculans assessed as reduction of germ tube length at 1 ug/ml after 22 hr relative to control; assay type: functional; set-up: scale not given: the % may be the effect or the level left
Plenodomus lingam [8] = assay: Antifungal activity against Leptosphaeria maculans assessed as reduction of germ tube length at 0.5 ug/ml after 22 hr relative to control; assay type: functional; set-up: scale not given: the % may be the effect or the level left
Plenodomus lingam [9] = assay: Antifungal activity against Leptosphaeria maculans assessed as reduction of conidia production at 0.25 to 1 ug/ml after 2 weeks; assay type: functional, organism-based
Plenodomus biglobosus [10] = assay: Antifungal activity against Leptosphaeria biglobosa assessed as reduction of germ tube length at 0.5 ug/ml after 22 hr relative to control; assay type: functional; set-up: scale not given: the % may be the effect or the level left
Plenodomus lingam [11] = assay: Antifungal activity against Leptosphaeria maculans assessed as inhibition of conidia germination at 0.25 to 1 ug/ml after 22 hr; assay type: functional, organism-based
Plenodomus biglobosus [12] = assay: Antifungal activity against Leptosphaeria biglobosa assessed as viable ascospore at 0.25 to 1 ug/ml after 1 week; assay type: functional, organism-based
Plenodomus lingam [13] = assay: Antifungal activity against Leptosphaeria maculans assessed as viable ascospore at 0.25 to 1 ug/ml after 1 week; assay type: functional, organism-based
Plenodomus biglobosus [14] = assay: Antifungal activity against Leptosphaeria biglobosa assessed as inhibition of mycelial growth after 7 days; assay type: functional; conditions: 168 h, read-out: ED50 (the source's name)
Plenodomus lingam [15] = assay: Antifungal activity against Leptosphaeria maculans assessed as viable conidia at 0.25 to 1 ug/ml after 1 week; assay type: functional, organism-based
Plenodomus biglobosus [16] = assay: Antifungal activity against Leptosphaeria biglobosa assessed as reduction of conidia production at 0.25 to 1 ug/ml after 2 weeks; assay type: functional, organism-based
Plenodomus lingam [17] = assay: Antifungal activity against Leptosphaeria maculans assessed as inhibition of mycelial growth after 17 days; assay type: functional; conditions: 408 h, read-out: ED50 (the source's name)
Plenodomus biglobosus [18] = assay: Antifungal activity against Leptosphaeria biglobosa assessed as reduction of germ tube length at 1 ug/ml after 22 hr relative to control; assay type: functional; set-up: scale not given: the % may be the effect or the level left
Plenodomus lingam [19] = assay: Antifungal activity against Leptosphaeria maculans assessed as viable ascospore at 0.75 to 3 ug/ml after 1 week; assay type: functional, organism-based
Plenodomus lingam [20] = assay: Antifungal activity against Leptosphaeria maculans assessed as reduction of germ tube length at 1.5 ug/ml after 22 hr relative to control; assay type: functional; set-up: scale not given: the % may be the effect or the level left
Plenodomus lingam [21] = assay: Antifungal activity against Leptosphaeria maculans assessed as viable conidia at 0.75 to 3 ug/ml after 1 week; assay type: functional, organism-based
Plenodomus lingam [22] = assay: Antifungal activity against Leptosphaeria maculans assessed as inhibition of conidia germination at 0.75 to 3 ug/ml after 22 hr; assay type: functional, organism-based
Plenodomus lingam [23] = assay: Antifungal activity against Leptosphaeria maculans assessed as reduction of germ tube length at 0.75 ug/ml after 22 hr relative to control; assay type: functional; set-up: scale not given: the % may be the effect or the level left
Plenodomus biglobosus [24] = assay: Antifungal activity against Leptosphaeria biglobosa assessed as ascospore germination at 0.75 to 3 ug/ml after 22 hr; assay type: functional
Plenodomus lingam [25] = assay: Antifungal activity against Leptosphaeria maculans assessed as reduction of conidia production at 0.75 to 3 ug/ml after 2 weeks; assay type: functional, organism-based
Plenodomus lingam [26] = assay: Antifungal activity against Leptosphaeria maculans assessed as ascospore germination at 0.75 to 3 ug/ml after 22 hr; assay type: functional
Plenodomus biglobosus [27] = assay: Antifungal activity against Leptosphaeria biglobosa assessed as viable ascospore at 0.75 to 3 ug/ml after 1 week; assay type: functional, organism-based
Plenodomus biglobosus [28] = assay: Antifungal activity against Leptosphaeria biglobosa assessed as viable conidia at 0.75 to 3 ug/ml after 1 week; assay type: functional, organism-based
Plenodomus biglobosus [29] = assay: Antifungal activity against Leptosphaeria biglobosa assessed as reduction of conidia production at 0.75 to 3 ug/ml after 2 weeks; assay type: functional, organism-based
Plenodomus lingam [30] = assay: Antifungal activity against Leptosphaeria maculans assessed as reduction of germ tube length at 3 ug/ml after 22 hr relative to control; assay type: functional; set-up: scale not given: the % may be the effect or the level left
Plenodomus biglobosus [31] = assay: Antifungal activity against Leptosphaeria biglobosa assessed as inhibition of conidia germination at 0.75 to 3 ug/ml after 22 hr; assay type: functional, organism-based
Plenodomus biglobosus [32] = assay: Antifungal activity against Leptosphaeria biglobosa assessed as reduction of germ tube length at 3 ug/ml after 22 hr relative to control; assay type: functional; set-up: scale not given: the % may be the effect or the level left
Plenodomus biglobosus [33] = assay: Antifungal activity against Leptosphaeria biglobosa assessed as reduction of germ tube length at 1.5 ug/ml after 22 hr relative to control; assay type: functional; set-up: scale not given: the % may be the effect or the level left
Plenodomus biglobosus [34] = assay: Antifungal activity against Leptosphaeria biglobosa assessed as reduction of germ tube length at 0.75 ug/ml after 22 hr relative to control; assay type: functional; set-up: scale not given: the % may be the effect or the level left
Plenodomus lingam [35] = assay: Antifungal activity against Leptosphaeria maculans assessed as reduction of conidia production at 1 to 4 ug/ml after 2 weeks; assay type: functional, organism-based
Plenodomus biglobosus [36] = assay: Antifungal activity against Leptosphaeria biglobosa assessed as reduction of germ tube length at 4 ug/ml after 22 hr relative to control; assay type: functional; set-up: scale not given: the % may be the effect or the level left
Plenodomus lingam [37] = assay: Antifungal activity against Leptosphaeria maculans assessed as viable conidia at 2 to 4 ug/ml after 1 week; assay type: functional, organism-based
Plenodomus biglobosus [38] = assay: Antifungal activity against Leptosphaeria biglobosa assessed as reduction of germ tube length at 2 ug/ml after 22 hr relative to control; assay type: functional; set-up: scale not given: the % may be the effect or the level left
Plenodomus biglobosus [39] = assay: Antifungal activity against Leptosphaeria biglobosa assessed as viable conidia at 2 to 4 ug/ml after 1 week; assay type: functional, organism-based
Plenodomus biglobosus [40] = assay: Antifungal activity against Leptosphaeria biglobosa assessed as reduction of conidia production at 1 to 4 ug/ml after 2 weeks; assay type: functional, organism-based
Plenodomus biglobosus [41] = assay: Antifungal activity against Leptosphaeria biglobosa assessed as inhibition of conidia germination at 4 ug/ml after 22 hr; assay type: functional
Plenodomus lingam [42] = assay: Antifungal activity against Leptosphaeria maculans assessed as ascospore germination at 1 to 4 ug/ml after 22 hr; assay type: functional
Plenodomus lingam [43] = assay: Antifungal activity against Leptosphaeria maculans assessed as viable ascospore at 1 to 4 ug/ml after 1 week; assay type: functional, organism-based
Plenodomus lingam [44] = assay: Antifungal activity against Leptosphaeria maculans assessed as reduction of germ tube length at 4 ug/ml after 22 hr relative to control; assay type: functional; set-up: scale not given: the % may be the effect or the level left
Plenodomus biglobosus [45] = assay: Antifungal activity against Leptosphaeria biglobosa assessed as viable ascospore at 1 to 4 ug/ml after 1 week; assay type: functional, organism-based
Plenodomus lingam [46] = assay: Antifungal activity against Leptosphaeria maculans assessed as inhibition of conidia germination at 4 ug/ml after 22 hr; assay type: functional
Plenodomus biglobosus [47] = assay: Antifungal activity against Leptosphaeria biglobosa assessed as ascospore germination at 1 to 4 ug/ml after 22 hr; assay type: functional
Plenodomus lingam [48] = assay: Antifungal activity against Leptosphaeria maculans assessed as reduction of germ tube length at 2 ug/ml after 22 hr relative to control; assay type: functional; set-up: scale not given: the % may be the effect or the level left
Plenodomus lingam [49] = assay: Antifungal activity against Leptosphaeria maculans; assay type: functional; conditions: read-out: ED50 (the source's name)

`C[Si](Cn1cncn1)(c1ccc(F)cc1)c1ccc(F)cc1` [FLUSILAZOLE] gave an Activity (Plenodomus biglobosus [1]) of 94%, an Activity (Plenodomus lingam [2]) of 96% and an Activity (Plenodomus lingam [3]) of 15.9%. The Activity (Plenodomus biglobosus [4]) was 56.9%, the inhibition (Plenodomus biglobosus [5]) was “Active” and the Activity (Plenodomus biglobosus [6]) was “inactive”. For the same molecule, the Activity (Plenodomus lingam [7]) was 22.5%, the Activity (Plenodomus lingam [8]) was 22.1% and the Activity (Plenodomus lingam [9]) was “inactive”. The Activity (Plenodomus biglobosus [10]) was 56.3%, the inhibition (Plenodomus lingam [11]) was “Active” and the Activity (Plenodomus biglobosus [12]) was “inactive”. For the same molecule, the Activity (Plenodomus lingam [13]) was “inactive”, the EC50 (Plenodomus biglobosus [14]) was 0.67 µg/mL (≈ 2.12 µM) and the Activity (Plenodomus lingam [15]) was “inactive”. For the same molecule, the Activity (Plenodomus biglobosus [16]) was “Active”, the EC50 (Plenodomus lingam [17]) was 0.27 µg/mL (≈ 0.856 µM) and the Activity (Plenodomus biglobosus [18]) was 53.8%.
For `CC(C)(C)C(O)(CCc1ccc(Cl)cc1)Cn1cncn1` (stereo not drawn) [TEBUCONAZOLE], the Activity (Plenodomus lingam [19]) was “inactive”, the Activity (Plenodomus lingam [20]) was 36.7% and the Activity (Plenodomus lingam [21]) was “inactive”. The inhibition (Plenodomus lingam [22]) was “Active”, the Activity (Plenodomus lingam [23]) was 44% and the Activity (Plenodomus biglobosus [24]) was 94%. For the same molecule, the Activity (Plenodomus lingam [25]) was “inactive”, the Activity (Plenodomus lingam [26]) was 96% and the Activity (Plenodomus biglobosus [27]) was “inactive”. The Activity (Plenodomus biglobosus [28]) was “inactive”, the Activity (Plenodomus biglobosus [29]) was “Active” and the EC50 (Plenodomus biglobosus [14]) was 1.45 µg/mL (≈ 4.71 µM). The Activity (Plenodomus lingam [30]) was 43.2%, the inhibition (Plenodomus biglobosus [31]) was “Active” and the Activity (Plenodomus biglobosus [32]) was 69.6%. The Activity (Plenodomus biglobosus [33]) was 63.4%, the Activity (Plenodomus biglobosus [34]) was 64.3% and the EC50 (Plenodomus lingam [17]) was 0.34 µg/mL (≈ 1.1 µM).
In the case of `CCCCNC(=O)n1c(NC(=O)OC)nc2ccccc21` [BENOMYL], the Activity (Plenodomus lingam [35]) is reported as “inactive”, the Activity (Plenodomus biglobosus [36]) is reported as 81.6% and the Activity (Plenodomus lingam [37]) is reported as “Active”. For the same molecule, the Activity (Plenodomus biglobosus [38]) was 85.5%, the Activity (Plenodomus lingam [7]) was 46.8% and the Activity (Plenodomus biglobosus [39]) was “Active”. For the same molecule, the Activity (Plenodomus biglobosus [40]) was “Active”, the inhibition at 4 µg/mL (Plenodomus biglobosus [41]) was 15% and the Activity (Plenodomus lingam [42]) was 96%. For the same molecule, the Activity (Plenodomus lingam [43]) was “inactive”, the Activity (Plenodomus lingam [44]) was 65.8% and the Activity (Plenodomus biglobosus [45]) was “inactive”. The inhibition at 4 µg/mL (Plenodomus lingam [46]) was over 80%, the Activity (Plenodomus biglobosus [47]) was 94% and the Activity (Plenodomus lingam [48]) was 68.3%. The Activity (Plenodomus biglobosus [18]) was 4.5%.
`OC(Cn1cncn1)(c1ccc(F)cc1)c1ccccc1F` (stereo not drawn) [FLUTRIAFOL] was tested, and the EC50 (Plenodomus lingam [49]) was 0.45 µg/mL (≈ 1.49 µM).
